Values joined by “and” are separate entries in the source; they are usually repeats but may differ in a detail not shown here. Equal entries are not always repeated. Where two headings read alike, the source gives them in different places. Starred links: 1 amine or outer side, 2 acyl side, 3 side chain; linkers in the order of their positions; H or OH if unused. Non-standard residues stand in square brackets, D forms with d. Residues, ends and D or L forms follow the SMILES beside them. *: point of attachment. Dolaproine = CO[C@@H]([C@@H]1CCCN1)[C@@H](C)C(=O)O; Hexanoyl(6-maleimido) = O=C1C=CC(=O)N1CCCCCC(=O)*; Dil = CC[C@H](C)[C@H](NC)[C@@H](CC(=O)O)OC; PABC = O=C(OCc1ccc(N[*:1])cc1)[*:2]; Doe = c1ccc(C[C@H](N*)c2nccs2)cc1; X1 = C[C@@H](N*)[C@@H](O)c1ccccc1; Cit = NC(=O)NCCC[C@H](N)C(=O)O; NMeV = CN[C@H](C(=O)O)C(C)C
How the values were obtained:
Oval-Citar-3-MSLN cells = assay: Cytotoxic activity (CCK-8) in Oval-Citar-3 cells with high expression of MSLN; conditions: for IC50: read-out: cytotoxicity IC50
Protocol: Oval-Citar-3-MSLN cells in good growth state were added to a 96-well cell culture plates (5×10^4 cells/mL. 100 μL/well), and incubated overnight at 37° C. in a CO2 incubator. […] After dilution, they were added to 96 plates (100 μL/well), and a blank group (equal volume of medium without drug) and three control groups were set, and incubation was carried out in a CO2 constant temperature incubator at 37° C. for 72 hours. A medium (without FBS) that contained 10 μL of CCK-8 at a dose of 100 μL/well was added, incubated at 37° C. for 2 to 4 hours in a CO2 incubator, and the OD values at 450 nm were read with a microplate reader. The inhibition rate was calculated by the following formula: IR %=(ODblank−ODdrug)×100/ODblank.

[1] = system: Oval-Citar-3 human ovarian cancer bearing mouse model with high expression of MSLN; assay: Anti-tumor experiment of RC88-Py-MAA-Val-Cit-PAB-MMAE, dose groups and controls, in Oval-Citar-3-MSLN tumor-bearing nude mice (Example 6); format: in vivo
Protocol: Oval-Citar-3-MSLN cells (2×10^6) in normal growth state were subcutaneously inoculated in nude mice (Changzhou Cavans Laboratory Animal Co., Ltd., certificate number: 201611240, license number: SCXK (Su) 2011-0003), and the animals were randomized after the tumor volume grew to approximately 100-400 mm^3. […] 3 times in total (PTX was administered twice a week, 6 times in total), and the negative control group was administrated with the equal amount of physiological saline at the same time.

[2] = OVal-CitAR3-MSLN, 72 hours, CCK-8, N = 3
[3] = 10 mg/kg twice a week, 6 times in total, after 21 days of administration

Row | Structure (SMILES) | Inhibition rate, % (maximum inhibition rate) (Oval-Citar-3-MSLN cells; [2]) | cytotoxicity IC50 (Oval-Citar-3-MSLN cells; [2]) | IC50 (Oval-Citar-3-MSLN cells; [2]) | difference from the control (saline) group ([1]; 0.06 mg/kg, once a week, 3 times in total, P>0.05) | T/C [1, 3] | tumors completely eliminated (CR) [1, 3] | tumor volume and RTV versus the control (saline) group ([1]; 10 mg/kg twice a week, 6 times in total, after 21 days, P<0.05) | IC50 (Oval-Citar-3-MSLN cells; Homo sapiens, 72 h)
1 | CC[C@H](C)[C@@H]([C@@H](CC(=O)N1CCC[C@H]1[C@H](OC)[C@@H](C)C(=O)N[C@@H](Cc1ccccc1)c1nccs1)OC)N(C)C(=O)[C@@H](NC(=O)[C@@H](NC)C(C)C)C(C)C [MMAD, monomethyl auristatin D] (H-[NMeV]V[Dil][Dolaproine]-Doe) | 98.1 ± 2.4% | 0.1169 ± 0.0074 ng/mL | 0.152 ± 0.01 nM |  |  |  |  | 
2 | CC[C@H](C)[C@@H]([C@@H](CC(=O)N1CCC[C@H]1[C@H](OC)[C@@H](C)C(=O)N[C@H](C)[C@@H](O)c1ccccc1)OC)N(C)C(=O)[C@@H](NC(=O)[C@@H](NC)C(C)C)C(C)C [MMAE, monomethyl auristatin E] (H-[NMeV]V[Dil][Dolaproine]-X1) | 96.9 ± 0.7% | 0.3199 ± 0.0284 ng/mL | 0.446 ± 0.0395 nM | no significant difference |  |  |  | 
3 | CC[C@H](C)[C@@H]([C@@H](CC(=O)N1CCC[C@H]1[C@H](OC)[C@@H](C)C(=O)N[C@H](C)[C@@H](O)c1ccccc1)OC)N(C)C(=O)[C@@H](NC(=O)[C@H](C(C)C)N(C)C(=O)OCc1ccc(NC(=O)[C@H](CCCNC(N)=O)NC(=O)[C@@H](NC(=O)CCCCCN2C(=O)C=CC2=O)C(C)C)cc1)C(C)C [Mc-Val-Cit-PAB-MMAE] ({Hexanoyl(6-maleimido)}-V[Cit][PABC][NMeV]V[Dil][Dolaproine]-X1) | 94.5 ± 0.8% | ~663.4 ng/mL |  |  |  |  |  | 
4 | CC(=O)O[C@H]1C(=O)[C@@]2(C)[C@H]([C@H](OC(=O)c3ccccc3)[C@]3(O)C[C@H](OC(=O)[C@H](O)[C@@H](NC(=O)c4ccccc4)c4ccccc4)C(C)=C1C3(C)C)[C@]1(OC(C)=O)CO[C@@H]1C[C@@H]2O [PTX, Paclitaxel] | 92.8 ± 1.5% |  |  |  | < 40% | tumors were completely eliminated (CR) in two tumor-bearing mice | statistically different | 0.00109 µg/mL and 1.27 nM

Reference: patent publication US12171840B2, “Anti-mesothelin antibody and antibody drug conjugate thereof” (Remegen, Ltd., priority 2018, dated 2024)
